{"source": "patent US11505579B2", "about": "“Methods of treatment and related compositions” (ASCEND BIOPHARMACEUTICALS LTD, priority 2020, dated 2022)", "key": {"[1]": {"system": "operable basal cell carcinoma", "settings": "Vismodegib 150 mg daily over 12 weeks; Sofen et al. (2015); cited from earlier work"}, "B16F10 tumours": {"system": "B16F10 tumours", "assay": "Tumour growth and survival of B16F10 tumour-bearing mice (B16F10-e357 study)", "type": "in vivo, mouse", "settings": "for mice alive after day 12: culled at ethical end point", "method": "The B16F10 murine colon carcinoma cell line was maintained in DMEM medium containing 10% fetal bovine serum, 2 mM glutamine, 100 units/mL sodium penicillin G, 25 μg/mL gentamicin, and 100 μg/mL streptomycin sulfate. The tumour cells were cultured in tissue culture flasks in a humidified incubator at 37° C., in an atmosphere of 5% CO2 and 95% air.\nB16F10 cells were harvested during log phase growth and resuspended in PBS. Each mouse was injected subcutaneously in the right flank with 5×10^5 cells (in a 0.1 mL cell suspension). Tumours were calipered in two dimensions to monitor growth as their mean volume approached the desired 30 to 60 mm^3 range. Tumour size, in mm^3, was calculated from:\n[formula] where w=width and l=length, in mm, of the tumour. Tumour weight can be estimated based on the assumption that 1 mg is equivalent to 1 mm^3 of tumour volume.\nEight days after tumour cell implantation, on Day 1 of the study, animals were sorted into eight groups (n=10 per group) according to tumour volume, with individual tumour volumes ranging from 32 to 63 mm^3 and group mean tumour volumes ranging from 41 to 42 mm^3. Tumour progression was monitored using caliper measurements three times weekly for the duration of the study.\nVismodegib and Ad5-mIFNg (stock concentration 3.3×10^12 viral particles/mL) were stored at −80° C. prior to formulation. On each day of dosing, Vismodegib was dissolved in vehicle 2 (75% PEG400:25% D5W (5% dextrose in water)) to obtain 5 mg/mL and 10 mg/mL dosing solutions which delivered a dose of 50 mg/kg and 100 mg/kg when administered in a volume of 10 mL/kg (0.2 mL per 20 g mouse), adjusted to the body weight of each animal.\nOn the first day of dosing, Ad5-mIFNg was thawed rapidly and diluted in vehicle 1 (1 M saccharose, 54 mg/L Tween® 80, 10 mM Tris, 1 mM MgCl2, 150 mM NaCl, pH 8) to obtain dosing solutions of 5×10^11 particles/mL and 2×10^11 particles/mL, which delivered 1×10^10 particles/animal when dosed in a fixed volume of 20 μL and 50 μL per animal, respectively.\nOn Day 1 of the study, female mice bearing established B16F10 tumours were sorted into eight groups (n=10 per group) and began dosing according to the treatment plan summarized in Table 2. Vehicle 1 and Ad5-mIFNg (1×10^10 particles per animal) were administered intratumourally (itu) in a fixed volume of either 20 μL or 50 μL; vehicle 2 and Vismodegib were administered orally (po) in a volume of 10 mL/kg (0.2 mL per 20 g mouse), adjusted to the body weight of each animal. The groups were as follow:\nGroup 1 served as the control group and received 20 μL vehicle 1 itu once a day (qd) for three days (qd×3) and vehicle 2 po qd×7.\nGroup 2 received 20 μL vehicle 1 itu qd×3 and 50 mg/kg vismodegib po qd×7.\nGroup 3 received 1×10^10 particles/animal Ad5-mIFNg in 20 μL itu qd×3 and vehicle 2.\nGroup 4 received 1×10^10 particles/animal Ad5-mIFNg 1 itu qd×3 and 50 mg/kg vismodegib 2 po qd×7.\nGroup 5 received 20 μL vehicle 1 itu once a week for a week (qwk×1) followed by 50 μL vehicle 1 itu qwk×1 (starting on Day 8) in addition to vehicle 2 po three times a week (tiwk) to Day 10.\nGroup 6 received 20 μL vehicle 1 itu once a week for a week (qwk×1) followed by 50 μL vehicle 1 itu qwk×1 (starting on Day 8) and 100 mg/kg Vismodegib in vehicle 2 po tiwk to Day 13. […]"}}}
{"smiles": "CS(=O)(=O)c1ccc(C(=O)Nc2ccc(Cl)c(-c3ccccn3)c2)c(Cl)c1", "note": "[Vismodegib]", "values": [{"measurement": "loco-regional CHC", "setting": "[1]", "result": 16, "unit": "%"}, {"measurement": "tumour growth compared to the control vehicle treated groups", "setting": "B16F10 tumours; G2: Vismodegib 50 mg/kg po qd×7, vehicle 1 itu qd×3", "result": "did not significantly reduce tumour growth"}, {"measurement": "mice alive after day 12", "setting": "B16F10 tumours; G2: Vismodegib 50 mg/kg po qd×7", "result": "none"}, {"measurement": "mice still alive on day 36 (number of mice)", "setting": "B16F10 tumours; G2: Vismodegib only 50 mg/kg po qd×7, day 36", "result": "no mice"}, {"measurement": "tumour growth compared to the control vehicle treated groups", "setting": "B16F10 tumours; G6: Vismodegib 100 mg/kg po tiwk×3, vehicle 1 itu", "result": "did not significantly reduce tumour growth"}, {"measurement": "mice alive after day 12", "setting": "B16F10 tumours; G6: Vismodegib 100 mg/kg po tiwk×3", "result": "none"}]}
